Results from patent US20250195521A1 (Revolution Medicines, Inc., priority 2020, published 2025).
Where two headings read alike, the source gives them in different places.

Legend:
KRAS G12V = KRAS G12V (Homo sapiens (Human), UniProt P01116+P62937, G12V); test: Ras-Raf disruption/FRET/MOA assay (BRAF RBD, Cyclophilin A); assay type: biochemical; conditions: read-out: KRAS G12V FRET IC50
Summary of the method: (§1)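 TR-FRET readout: anti-His Eu-W1024 (10 nM) and anti-GST allophycocyanin (50 nM) added after 3 h, 25° C compound incubation, then 1.5 h more. Decrease in FRET ratio versus DMSO wells marks Ras:RAF disruption; IC50 reported.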

KRAS G13C = KRAS G13C (Homo sapiens (Human), UniProt P01116+P62937, G13C); test: as above; assay type: biochemical; conditions: read-out: KRAS G13C FRET IC50
Summary of the method: as §1

KRAS G12D = KRAS G12D (Homo sapiens (Human), UniProt P01116+P62937, G12D); test: as above; assay type: biochemical; conditions: read-out: KRAS G12D FRET IC50
Summary of the method: as §1

KRAS G12S = KRAS G12S (Homo sapiens (Human), UniProt P01116+P62937, G12S); test: as above; assay type: biochemical; conditions: read-out: KRAS G12S FRET IC50
Summary of the method: as §1

KRAS G13D = KRAS G13D (Homo sapiens (Human), UniProt P01116+P62937, G13D); test: as above; assay type: biochemical; conditions: read-out: KRAS G13D FRET data IC50
Summary of the method: as §1

NRAS G12C = NRAS G12C (Homo sapiens (Human), UniProt P01111+P62937, G12C); test: as above; assay type: biochemical; conditions: read-out: NRAS G12C FRET data IC50
Summary of the method: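 25 μM tagless Cyclophilin A, 12.5 nM His6-Ras-GMPPNP and 50 nM GST-BRAF RBD in HEPES pH 7.3 buffer with 5 mM MgCl2, with compound (10-point 3-fold series from 30 μM final) for 3 h at 25 °C. Anti-His Eu and anti-GST APC then added for 1.5 h. IC50 from TR-FRET ratio decrease versus DMSO.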

KRAS G12C = KRAS G12C (Homo sapiens (Human), UniProt P01116+P62937, G12C); test: as above; assay type: biochemical; conditions: read-out: KRAS G12C FRET IC50
Summary of the method: as §1

KRAS WT = KRAS WT (Homo sapiens (Human), UniProt P01116+P62937); test: as above; assay type: biochemical; conditions: read-out: KRAS WT FRET data IC50
Summary of the method: as §1

[1] = tested on: NCI-H358 cells (K-Ras G12C); test: CellTiter-Glo cell viability, NCI-H358; assay type: cell-based, human; conditions: Homo sapiens, NCI-H358, 120 h, read-out: H358 Cell Viability IC50
Summary of the method: (§2)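 Compounds dispensed directly onto seeded cells; on day 5 plates equilibrated ~30 min to room temperature and luminescence read. Signal normalized to DMSO average (%) and fitted by four-parameter logistic.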

[2] = tested on: K-Ras G12C (NCI-H358 cells); test: Potency assay: pERK in NCI-H358 cells; assay type: cell-based, human; conditions: Homo sapiens, read-out: pERK EC50 (H358 KRAS G12C)
Summary of the method: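 Cells plated the day before were exposed for 4 h at 37° C, 5% CO2 to a 10-point, 3-fold DMSO dilution series (10 mM top stock), in duplicate. Phospho-ERK was read by AlphaLISA SureFire Ultra or by In-Cell Western with DRAQ5 DNA stain, and IC50 came from a 4-parameter sigmoidal fit.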

[3] = tested on: Capan-1 cells (K-Ras G12V); test: CellTiter-Glo cell viability, Capan-1; assay type: cell-based, human; conditions: Homo sapiens, CAPAN-1, 120 h, read-out: Capan-1 Cell Viability IC50
Summary of the method: as §2

KRAS WT, sequence (P01116 other isoform, or with tags, fused parts or gaps): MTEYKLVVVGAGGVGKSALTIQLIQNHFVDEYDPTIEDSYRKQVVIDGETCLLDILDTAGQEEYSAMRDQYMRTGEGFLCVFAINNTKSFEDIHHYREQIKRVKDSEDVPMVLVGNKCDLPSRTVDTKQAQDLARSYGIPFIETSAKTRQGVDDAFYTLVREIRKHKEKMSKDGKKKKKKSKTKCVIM
KRAS WT, sequence (P62937 whole entry): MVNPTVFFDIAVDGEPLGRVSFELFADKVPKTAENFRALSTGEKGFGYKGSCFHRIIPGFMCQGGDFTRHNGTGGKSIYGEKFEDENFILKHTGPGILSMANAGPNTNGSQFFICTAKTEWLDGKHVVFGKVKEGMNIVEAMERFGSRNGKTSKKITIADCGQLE
KRAS G12V, sequence (P01116 other isoform, or with tags, fused parts or gaps G12V): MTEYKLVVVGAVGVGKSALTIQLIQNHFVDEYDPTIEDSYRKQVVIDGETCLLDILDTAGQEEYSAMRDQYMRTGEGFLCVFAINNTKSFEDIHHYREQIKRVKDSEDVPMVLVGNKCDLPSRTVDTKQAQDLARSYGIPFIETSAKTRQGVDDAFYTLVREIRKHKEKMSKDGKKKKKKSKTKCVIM
KRAS G12V, sequence (P62937 whole entry): as the sequence (P62937 whole entry) above
KRAS G12D, sequence (P01116 other isoform, or with tags, fused parts or gaps G12D): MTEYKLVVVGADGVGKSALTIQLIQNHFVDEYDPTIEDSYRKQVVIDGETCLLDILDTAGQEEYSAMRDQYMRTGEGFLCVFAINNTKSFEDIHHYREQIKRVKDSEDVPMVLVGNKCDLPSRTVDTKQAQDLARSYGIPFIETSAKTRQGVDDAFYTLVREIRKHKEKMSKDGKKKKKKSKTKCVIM
KRAS G12D, sequence (P62937 whole entry): as the sequence (P62937 whole entry) above
KRAS G12S, sequence (P01116 other isoform, or with tags, fused parts or gaps G12S): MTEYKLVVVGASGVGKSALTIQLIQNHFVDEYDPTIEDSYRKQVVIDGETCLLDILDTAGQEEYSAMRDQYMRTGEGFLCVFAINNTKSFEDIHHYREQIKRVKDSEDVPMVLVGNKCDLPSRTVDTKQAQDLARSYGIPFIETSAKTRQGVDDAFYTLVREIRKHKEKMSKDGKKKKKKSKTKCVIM
KRAS G12S, sequence (P62937 whole entry): as the sequence (P62937 whole entry) above
NRAS G12C, sequence (P01111 whole entry G12C): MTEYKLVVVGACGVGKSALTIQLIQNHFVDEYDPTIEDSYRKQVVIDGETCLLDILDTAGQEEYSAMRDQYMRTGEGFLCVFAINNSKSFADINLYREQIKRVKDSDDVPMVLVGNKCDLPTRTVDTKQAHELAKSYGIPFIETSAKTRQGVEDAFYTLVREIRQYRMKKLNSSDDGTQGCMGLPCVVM
NRAS G12C, sequence (P62937 whole entry): as the sequence (P62937 whole entry) above
KRAS G13C, sequence (P01116 other isoform, or with tags, fused parts or gaps G13C): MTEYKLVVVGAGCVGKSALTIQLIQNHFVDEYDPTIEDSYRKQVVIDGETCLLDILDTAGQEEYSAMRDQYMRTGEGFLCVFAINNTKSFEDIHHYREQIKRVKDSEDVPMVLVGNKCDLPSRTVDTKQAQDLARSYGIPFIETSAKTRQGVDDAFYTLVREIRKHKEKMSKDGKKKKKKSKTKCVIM
KRAS G13C, sequence (P62937 whole entry): as the sequence (P62937 whole entry) above
KRAS G13D, sequence (P01116 other isoform, or with tags, fused parts or gaps G13D): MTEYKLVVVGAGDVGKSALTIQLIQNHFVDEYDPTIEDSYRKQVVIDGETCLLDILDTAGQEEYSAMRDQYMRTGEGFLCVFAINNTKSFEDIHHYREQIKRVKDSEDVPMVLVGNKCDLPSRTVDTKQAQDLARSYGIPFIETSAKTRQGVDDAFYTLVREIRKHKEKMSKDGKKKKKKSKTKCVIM
KRAS G13D, sequence (P62937 whole entry): as the sequence (P62937 whole entry) above
KRAS G12C, sequence (P01116-2 other isoform, or with tags, fused parts or gaps G12C): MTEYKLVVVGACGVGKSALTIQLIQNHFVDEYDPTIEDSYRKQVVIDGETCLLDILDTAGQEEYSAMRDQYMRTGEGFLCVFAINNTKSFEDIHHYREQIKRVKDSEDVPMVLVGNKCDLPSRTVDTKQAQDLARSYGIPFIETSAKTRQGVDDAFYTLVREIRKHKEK
KRAS G12C, sequence (P62937 whole entry): as the sequence (P62937 whole entry) above

SMILES	IC50 (KRAS G12V) [nM]	IC50 (KRAS G13C) [nM]	IC50 (KRAS G12D) [nM]	IC50 (KRAS G12S) [nM]	IC50 (KRAS G13D) [nM]	IC50 (NRAS G12C) [nM]	IC50 (KRAS G12C) [nM]	IC50 (KRAS WT) [nM]	IC50 [1] [nM]	EC50 ([2]; NCI-H358, 4 h) [nM]	IC50 [3] [nM]	IC50 ([1]; K-Ras G12C, 5-day treatment) [nM]	EC50 ([2]; NCI-H358 cells, 4 hours) [nM]	IC50 ([3]; K-Ras G12V, 5-day treatment) [nM]
CCn1c(-c2cccnc2[C@H](C)OC)c2c3cc(ccc31)-c1csc(n1)C[C@H](NC(=O)[C@H](C(C)C)N(C)C(=O)N1CC3CC(C1)O3)C(=O)N1CCC[C@H](N1)C(=O)OCC(C)(C)C2 [Compound A301]	100 to 1000	1000 to 10000	1000 to 10000	100 to 1000	1000 to 10000	100 to 1000	100 to 1000	100 to 1000	10 to 100	< 5000	100 to 1000			
CCn1c(-c2cccnc2[C@H](C)OC)c2c3cc(ccc31)-c1csc(n1)C[C@H](NC(=O)[C@H](C(C)C)N(C)S(=O)(=O)N1CC(OC)C1)C(=O)N1CCC[C@H](N1)C(=O)OCC(C)(C)C2 [Compound A322]	100 to 1000	100 to 1000	1000 to 10000	1000 to 10000	1000 to 10000	100 to 1000	100 to 1000	100 to 1000				100 to 1000	< 5000	100 to 1000
CCn1c(-c2cccnc2[C@H](C)OC)c2c3cc(ccc31)-c1csc(n1)C[C@H](NC(=O)[C@H](C(C)C)N(C)C(=O)N1CC(OC(F)(F)F)C1)C(=O)N1CCC[C@H](N1)C(=O)OCC(C)(C)C2 [Compound A330]	100 to 1000	100 to 1000	1000 to 10000	100 to 1000	100 to 1000	10 to 100	10 to 100	100 to 1000				10 to 100	< 5000	10 to 100
CCN(C)C(=O)N(C)[C@H](C(=O)N[C@H]1Cc2nc(cs2)-c2ccc3c(c2)c(c(-c2cccnc2[C@H](C)OC)n3CC)CC(C)(C)COC(=O)[C@@H]2CCCN(N2)C1=O)C(C)C [Compound A336]	100 to 1000	100 to 1000	100 to 1000	100 to 1000	100 to 1000	10 to 100	10 to 100	10 to 100				10 to 100	< 5000	10 to 100
CCn1c(-c2cccnc2[C@H](C)OC)c2c3cc(ccc31)-c1cc(O)cc(c1)C[C@H](NC(=O)[C@H](C(C)C)N(C)C(=O)[C@@H]1CCN(C(=O)[C@]3(C)CCCN3C)C1)C(=O)N1CCC[C@H](N1)C(=O)OCC(C)(C)C2 [Compound A342]	10 to 100	10 to 100	10 to 100	10 to 100	10 to 100	10 to 100	10 to 100	10 to 100				10 to 100	< 5000	100 to 1000
CCn1c(-c2cccnc2[C@H](C)OC)c2c3cc(ccc31)-c1csc(n1)C[C@H](NC(=O)[C@H](C(C)C)N(C)C(=O)N1CC(N)C1)C(=O)N1CCC[C@H](N1)C(=O)OCC(C)(C)C2 [Compound A343]	100 to 1000	100 to 1000	100 to 1000	100 to 1000	100 to 1000	10 to 100	10 to 100	100 to 1000				100 to 1000	< 5000	100 to 1000
CCn1c(-c2cccnc2[C@H](C)OC)c2c3cc(ccc31)-c1cc(O)cc(c1)C[C@H](NC(=O)[C@H](C(C)C)N(C)C(=O)[C@H]1CCN(C(=O)OC3CN(C)C3)C1)C(=O)N1CCC[C@H](N1)C(=O)OCC(C)(C)C2 [Compound A348]	10 to 100	10 to 100	10 to 100	10 to 100	10 to 100	10 to 100	10 to 100	10 to 100				10 to 100	< 5000	100 to 1000
CCn1c(-c2cccnc2[C@H](C)OC)c2c3cc(ccc31)-c1cc(O)cc(c1)C[C@H](NC(=O)[C@H](C(C)C)N(C)C(=O)[C@H]1CCN(C(=O)[C@@]3(C)CCCN3C)C1)C(=O)N1CCC[C@H](N1)C(=O)OCC(C)(C)C2 [Compound A379]	10 to 100	10 to 100	10 to 100	10 to 100	10 to 100	10 to 100	10 to 100	10 to 100				10 to 100	< 5000	100 to 1000
CCn1c(-c2cccnc2[C@H](C)OC)c2c3cc(ccc31)-c1cc(O)cc(c1)C[C@H](NC(=O)[C@H](C(C)C)N(C)C(=O)C13CCC(CC1)O3)C(=O)N1CCC[C@H](N1)C(=O)OCC(C)(C)C2 [Compound A412]	100 to 1000	100 to 1000	100 to 1000	100 to 1000	100 to 1000	100 to 1000	10 to 100	10 to 100				100 to 1000	< 5000	100 to 1000
CCn1c(-c2cccnc2[C@H](C)OC)c2c3cc(ccc31)-c1cc(O)cc(c1)C[C@H](NC(=O)[C@H](C(C)C)N(C)C(=O)C1CC3(CCOCC3)CO1)C(=O)N1CCC[C@H](N1)C(=O)OCC(C)(C)C2 (stereo partly shown) [Compound A413]	100 to 1000	10 to 100	100 to 1000	100 to 1000	100 to 1000	10 to 100	10 to 100	10 to 100				100 to 1000	< 5000	100 to 1000
CCn1c(-c2cccnc2[C@H](C)OC)c2c3cc(ccc31)-c1cc(O)cc(c1)C[C@H](NC(=O)[C@H](C(C)C)N(C)C(=O)[C@H]1CC[C@@H](C(N)=O)O1)C(=O)N1CCC[C@H](N1)C(=O)OCC(C)(C)C2 [Compound A414]	100 to 1000	10 to 100	100 to 1000	10 to 100	100 to 1000	10 to 100	10 to 100	100 to 1000				100 to 1000	< 5000	1000 to 10000
